Where two headings read alike, the source gives them in different places.
Tested on: CL097 triggered IFNα and TNFα release in human whole blood
Assay: Ex vivo human IFNα and TNFα release inhibition (whole blood assay, CL097 triggered)
Assay type: cell-based
Settings: CL097 2 μg/mL, 3 h 30 min
Source text: 4.10.1. Ex Vivo Human IFNα and TNFα Release Inhibition (Whole Blood Assay)
The aim of the assay is to evaluate the activity of compounds of the invention on the activated TLR/IRAK-4 pathway in an ex vivo human whole blood setting. Toll-like receptors (TLRs) are pattern recognition receptors that recognize a wide variety of microbial molecules, called pathogen-associated molecular patterns (PAMPs). Human TLR7 and TLR8 recognize imidazoquinoline compounds (e.g., CL097—CAS n #1026249-18-2) and single stranded RNAs as their natural ligands. Activation of TLRs leads to the production of several cytokines (e.g., IFNα, TNFα, IL-8, IL-6) by the TLR agonist-treated cells, whereas IRAK4 leads to the production of IFNα. Cytokine release is used as readout in this assay and represents a measure for the level of inhibition of the TLR/IRAK-4 pathway by the tested compound. It should be noted that in the context of the complete organism, other sources for these cytokines exist that are not dependent on the TLR/IRAK-4 pathway, such as e.g., macrophages (upon activation of the Fcγ receptor (Yan et al. 2012)) or T cells (upon activation of the T cell receptor (Brehm, Daniels, and Welsh 2005)).
4.10.1.1. Experimental Design
Blood was collected from healthy volunteers into lithium heparin tubes by venipuncture, then gently inverted several times to prevent clotting and incubated for at least 15 min at 37° C. on a rocking mixer shaker. Then, 100 μL of blood was dispensed into polypropylene 96-well microplate and pre-incubated in duplicate with 0.3% DMSO or test compound at different concentrations (from 30 to 0.01 μM, 3-fold dilutions to get 0.3% DMSO at the final) for 15 min at 37° C. After this pre-incubation, blood was triggered with CL097 (2 μg/mL from 1 mg/mL solution in water; InvivoGen, tlr1-c97) for 3 h 30 min at 37° C. Microtubes were centrifuged at 5000×g for 10 min at 4° C. and approximately 40 μL of plasma were collected into a polystyrene 96-well plate. Plasma could be analyzed freshly, within 30 min after triggering, or frozen at −80° C. Finally, the quantification of TNFα and IFNα were performed in the plasma using AlphaLISA Kit for […] according to the manufacturer's instructions and read on the Ensight (PerkinElmer).
A standard curve was created by plotting on log-log the mean absorbance on the y-axis against the concentration on the x-axis and a 4 PL was made through the points. For each blood sample, the IFNα concentrations of the samples were determined from the fit.
Data were then expressed as a percentage of inhibition (PIN) for each replicate using the formula:
With mean IFNα with CL097=mean IFNα concentration of replicate samples triggered with CL097; IFNαsample1=IFNα concentration of sample 1; mean IFNα with vehicle=mean IFNα concentration of replicate samples treated with vehicle.
For each blood sample, the TNFα concentrations of the samples were determined from the fit. Data were then expressed as a percentage of inhibition (PIN) for each replicate using the formula:
With mean TNFα with CL097=mean TNFα concentration of replicate samples triggered with CL097; TNFαsample1=TNFα concentration of sample 1; mean TNFα with vehicle=mean TNFα concentration of replicate samples treated with vehicle.
Curve fitting for pIC50 determination were generated using mean PIN±sem. Graphs and pIC50 calculations were derived using Prism 5.03 software (GraphPad).

SMILES | IC50 (read-out: IFNα IC50) [µM] | IC50 (read-out: TNFα IC50) [µM]
[2H]C([2H])([2H])NC(=O)c1cc2nc(CCC(C)(C)O)cn2cc1NC(=O)c1cccc(C(F)(F)F)n1 [Compound 1, 2-(3-hydroxy-3-methyl-butyl)-N-(trideuteriomethyl)-6-[[6-(trifluoromethyl)pyridine-2-carbonyl]amino]imidazo[1,2-a]pyridine-7-carboxamide] | 1 to 5 | 0.0001 to 0.5
CNC(=O)c1cc2nc(CCC(C)(C)O)cn2cc1NC(=O)c1cccc(C(F)(F)F)n1 [Compound 2, 2-(3-hydroxy-3-methyl-butyl)-N-methyl-6-[[6-(trifluoromethyl)pyridine-2-carbonyl]amino]imidazo[1,2-a]pyridine-7-carboxamide] | 0.5 to 1 | 0.0001 to 0.5
COc1cc2nc(CCC(C)(C)O)cn2cc1NC(=O)c1cccn(C2CC2)c1=O [Compound 5, 1-cyclopropyl-N-[2-(3-hydroxy-3-methyl-butyl)-7-methoxy-imidazo[1,2-a]pyridin-6-yl]-2-oxo-pyridine-3-carboxamide] | 0.0001 to 0.5 | –
COc1cc2nc(CCC(C)(C)O)cn2cc1NC(=O)c1cccc(C(F)F)n1 [Compound 7, 6-(difluoromethyl)-N-[2-(3-hydroxy-3-methyl-butyl)-7-methoxy-imidazo[1,2-a]pyridin-6-yl]pyridine-2-carboxamide] | 0.0001 to 0.5 | –
COc1cc2nc(CCC(C)(C)O)cn2cc1NC(=O)c1cccn(C(F)F)c1=O [Compound 12, 1-(difluoromethyl)-N-[2-(3-hydroxy-3-methyl-butyl)-7-methoxy-imidazo[1,2-a]pyridin-6-yl]-2-oxo-pyridine-3-carboxamide] | 0.5 to 1 | –
COc1cc2nc(CCS(C)(=O)=O)cn2cc1NC(=O)c1cccn(C2CC2)c1=O [Compound 25, 1-cyclopropyl-N-[7-methoxy-2-(2-methylsulfonylethyl)imidazo[1,2-a]pyridin-6-yl]-2-oxo-pyridine-3-carboxamide] | 0.0001 to 0.5 | –
COCCc1cn2cc(NC(=O)c3cccc(C(F)(F)F)n3)c(OC)cc2n1 [Compound 35, N-[7-methoxy-2-(2-methoxyethyl)imidazo[1,2-a]pyridin-6-yl]-6-(trifluoromethyl)pyridine-2-carboxamide] | > 5 | > 5
COc1c(NC(=O)c2cccn(C3CC3)c2=O)cn2cc(CCC(C)(C)O)nc2c1F [Compound 42, 1-cyclopropyl-N-[8-fluoro-2-(3-hydroxy-3-methyl-butyl)-7-methoxy-imidazo[1,2-a]pyridin-6-yl]-2-oxo-pyridine-3-carboxamide] | 0.5 to 1 | 0.0001 to 0.5

Now from value to compound:

IC50 (read-out: IFNα IC50) [µM] | IC50 (read-out: TNFα IC50) [µM] | SMILES
1 to 5 | – | COc1cc2nc(CCC(C)(C)O)cn2cc1NC(=O)c1cccc(C(F)(F)F)n1 [Compound 3, N-[2-(3-hydroxy-3-methyl-butyl)-7-methoxy-imidazo[1,2-a]pyridin-6-yl]-6-(trifluoromethyl)pyridine-2-carboxamide]
0.0001 to 0.5 | – | COc1cc2nc(CCC(C)(C)O)cn2cc1NC(=O)c1cccn(C)c1=O [Compound 4, N-[2-(3-hydroxy-3-methyl-butyl)-7-methoxy-imidazo[1,2-a]pyridin-6-yl]-1-methyl-2-oxo-pyridine-3-carboxamide]
0.0001 to 0.5 | – | COc1cc2nc(CCC(C)(C)O)cn2cc1NC(=O)c1cccc(C)n1 [Compound 6, N-[2-(3-hydroxy-3-methyl-butyl)-7-methoxy-imidazo[1,2-a]pyridin-6-yl]-6-methyl-pyridine-2-carboxamide]
0.5 to 1 | – | COc1cc2nc(CCS(C)(=O)=O)cn2cc1NC(=O)c1cccc(C(F)(F)F)n1 [Compound 24, N-[7-methoxy-2-(2-methylsulfonylethyl)imidazo[1,2-a]pyridin-6-yl]-6-(trifluoromethyl)pyridine-2-carboxamide]
0.0001 to 0.5 | 0.0001 to 0.5 | CC(C)(O)CCc1cn2cc(NC(=O)c3cccc(C(F)(F)F)n3)c(C(N)=O)cc2n1 [Compound 31, 2-(3-hydroxy-3-methyl-butyl)-6-[[6-(trifluoromethyl)pyridine-2-carbonyl]amino]imidazo[1,2-a]pyridine-7-carboxamide]
– | 1 to 5 | CCOc1c(NC(=O)c2cccn(C3CC3)c2=O)cn2cc(CCC(C)(C)O)nc2c1F [Compound 37, 1-cyclopropyl-N-[7-ethoxy-8-fluoro-2-(3-hydroxy-3-methyl-butyl)imidazo[1,2-a]pyridin-6-yl]-2-oxo-pyridine-3-carboxamide]
0.5 to 1 | 0.5 to 1 | CCOc1c(NC(=O)c2cccn(C3CC3)c2=O)cn2cc(CCS(C)(=O)=O)nc2c1F [Compound 39, 1-cyclopropyl-N-[7-ethoxy-8-fluoro-2-(2-methylsulfonylethyl)imidazo[1,2-a]pyridin-6-yl]-2-oxo-pyridine-3-carboxamide]
1 to 5 | 1 to 5 | CC(C)(O)CCc1cn2cc(NC(=O)c3cccc(C(F)(F)F)n3)c(C(=O)NCC(F)F)cc2n1 [Compound 48, N-(2,2-difluoroethyl)-2-(3-hydroxy-3-methylbutyl)-6-(6-(trifluoromethyl)picolinamido)imidazo[1,2-a]pyridine-7-carboxamide]
